{"source": "patent US11946059B2", "about": "“In vivo generation of water-soluble cannabinoids in plant cell suspension cultures” (Trait Biosciences Inc., priority 2017, dated 2024)", "assay": "Cannabinoid stability in solution (time course incubation)", "format": "physicochemical", "conditions": "room temperature, shielded from light", "description": "Rather, levels increased slightly in all treatments. The absence of any residual UGTs were cross-check and confirmed as the samples were purified by SPE, washed and eluted in 30% and 65%-100% ethanol, respectively.\nMaterials and Methods Example 19: Cannabinoid Stability in Solution.\nThe present inventors generated a stock solution of the CBD/CBDA+glycosides mixture in water which was further diluted 10× in all treatment solutions. A 10 mL starting volume was used for all treatments, and all treatments were prepared in triplicate. […] Each sample was incubated at room temperature. Samples were stored in 15 mL polypropylene centrifuge tubes. All samples were shielded from light—tubes were wrapped in aluminum foil. Each sample was prepared in triplicate in the following buffers: water only; pH=3; pH=4; pH=7; pH=8; water only+10 mM ascorbic acid; pH=3+10 mM ascorbic acid; pH=4+10 mM ascorbic acid; pH=7+10 mM ascorbic acid; and pH=8+10 mM ascorbic acid.", "key": {"[1]": {"conditions": "Water + AA (10 mM ascorbic acid)"}, "[2]": {"conditions": "pH = 3 + AA (10 mM ascorbic acid)"}, "[3]": {"conditions": "pH = 4 + AA (10 mM ascorbic acid)"}, "[4]": {"conditions": "pH = 7 + AA (10 mM ascorbic acid)"}, "[5]": {"conditions": "pH = 8 + AA (10 mM ascorbic acid)"}}, "data": [{"smiles": "C=C(C)C1CCC(C)=CC1c1c(O)cc(CCCCC)cc1OC1OC(CO)C(O)C(O)C1O", "note": "(centres unmarked) [1X CBD Gly]", "values": [{"measurement": "Day 1 concentration in solution", "setting": "[1]", "result": "7.99 ± 4.17", "unit": "µg/mL"}, {"measurement": "Day 1 concentration in solution", "setting": "Water", "result": "1.20 ± 21.68", "unit": "µg/mL"}, {"measurement": "Day 1 concentration in solution", "setting": "[2]", "result": "9.78 ± 5.27", "unit": "µg/mL"}, {"measurement": "Day 1 concentration in solution", "setting": "pH = 3", "result": "8.83 ± 1.80", "unit": "µg/mL"}, {"measurement": "Day 1 concentration in solution", "setting": "[3]", "result": "5.82 ± 3.11", "unit": "µg/mL"}, {"measurement": "Day 1 concentration in solution", "setting": "pH = 4", "result": "below LOQ"}, {"measurement": "Day 1 concentration in solution", "setting": "[4]", "result": "5.73 ± 4.70", "unit": "µg/mL"}, {"measurement": "Day 1 concentration in solution", "setting": "pH = 7", "result": "15.45 ± 0.07", "unit": "µg/mL"}, {"measurement": "Day 1 concentration in solution", "setting": "[5]", "result": "1.04 ± 4.15", "unit": "µg/mL"}, {"measurement": "Day 1 concentration in solution", "setting": "pH = 8", "result": "12.86 ± 4.15", "unit": "µg/mL"}, {"measurement": "Day 4 concentration in solution", "setting": "[1]", "result": "17.55 ± 5.99", "unit": "µg/mL"}, {"measurement": "Day 4 concentration in solution", "setting": "Water", "result": "15.11 ± 10.77", "unit": "µg/mL"}, {"measurement": "Day 4 concentration in solution", "setting": "[2]", "result": "17.99 ± 4.60", "unit": "µg/mL"}, {"measurement": "Day 4 concentration in solution", "setting": "pH = 3", "result": "18.94 ± 4.88", "unit": "µg/mL"}, {"measurement": "Day 4 concentration in solution", "setting": "[3]", "result": "17.02 ± 5.68", "unit": "µg/mL"}, {"measurement": "Day 4 concentration in solution", "setting": "pH = 4", "result": "29.03 ± 8.17", "unit": "µg/mL"}, {"measurement": "Day 4 concentration in solution", "setting": "[4]", "result": "19.96 ± 9.83", "unit": "µg/mL"}, {"measurement": "Day 4 concentration in solution", "setting": "pH = 7", "result": "19.64 ± 3.44", "unit": "µg/mL"}, {"measurement": "Day 4 concentration in solution", "setting": "[5]", "result": "15.86 ± 2.63", "unit": "µg/mL"}, {"measurement": "Day 4 concentration in solution", "setting": "pH = 8", "result": "26.99 ± 15.29", "unit": "µg/mL"}, {"measurement": "Day 5 concentration in solution", "setting": "[1]", "result": "19.70 ± 0.80", "unit": "µg/mL"}, {"measurement": "Day 5 concentration in solution", "setting": "Water", "result": "14.60 ± 1.31", "unit": "µg/mL"}, {"measurement": "Day 5 concentration in solution", "setting": "[2]", "result": "19.29 ± 3.26", "unit": "µg/mL"}, {"measurement": "Day 5 concentration in solution", "setting": "pH = 3", "result": "18.00 ± 0.59", "unit": "µg/mL"}, {"measurement": "Day 5 concentration in solution", "setting": "[3]", "result": "19.34 ± 1.90", "unit": "µg/mL"}, {"measurement": "Day 5 concentration in solution", "setting": "pH = 4", "result": "18.26 ± 0.52", "unit": "µg/mL"}, {"measurement": "Day 5 concentration in solution", "setting": "[4]", "result": "19.05 ± 3.91", "unit": "µg/mL"}, {"measurement": "Day 5 concentration in solution", "setting": "pH = 7", "result": "17.50 ± 1.63", "unit": "µg/mL"}, {"measurement": "Day 5 concentration in solution", "setting": "[5]", "result": "20.14 ± 1.73", "unit": "µg/mL"}, {"measurement": "Day 5 concentration in solution", "setting": "pH = 8", "result": "19.73 ± 0.55", "unit": "µg/mL"}, {"measurement": "Day 6 concentration in solution", "setting": "[1]", "result": "34.98 ± 9.28", "unit": "µg/mL"}, {"measurement": "Day 6 concentration in solution", "setting": "Water", "result": "8.56 ± 7.04", "unit": "µg/mL"}, {"measurement": "Day 6 concentration in solution", "setting": "[2]", "result": "27.67 ± 9.51", "unit": "µg/mL"}, {"measurement": "Day 6 concentration in solution", "setting": "pH = 3", "result": "21.59 ± 7.97", "unit": "µg/mL"}, {"measurement": "Day 6 concentration in solution", "setting": "[3]", "result": "31.67 ± 4.29", "unit": "µg/mL"}, {"measurement": "Day 6 concentration in solution", "setting": "pH = 4", "result": "32.87 ± 8.08", "unit": "µg/mL"}, {"measurement": "Day 6 concentration in solution", "setting": "[4]", "result": "30.43 ± 4.82", "unit": "µg/mL"}, {"measurement": "Day 6 concentration in solution", "setting": "pH = 7", "result": "46.80 ± 10.12", "unit": "µg/mL"}, {"measurement": "Day 6 concentration in solution", "setting": "[5]", "result": "32.97 ± 1.31", "unit": "µg/mL"}, {"measurement": "Day 6 concentration in solution", "setting": "pH = 8", "result": "44.10 ± 3.45", "unit": "µg/mL"}, {"measurement": "Day 7 concentration in solution", "setting": "[1]", "result": "24.99 ± 7.29", "unit": "µg/mL"}, {"measurement": "Day 7 concentration in solution", "setting": "Water", "result": "23.89 ± 5.27", "unit": "µg/mL"}, {"measurement": "Day 7 concentration in solution", "setting": "[2]", "result": "19.38 ± 0.46", "unit": "µg/mL"}, {"measurement": "Day 7 concentration in solution", "setting": "pH = 3", "result": "27.06 ± 4.05", "unit": "µg/mL"}, {"measurement": "Day 7 concentration in solution", "setting": "[3]", "result": "23.30 ± 3.95", "unit": "µg/mL"}, {"measurement": "Day 7 concentration in solution", "setting": "pH = 4", "result": "26.96 ± 0.46", "unit": "µg/mL"}, {"measurement": "Day 7 concentration in solution", "setting": "[4]", "result": "39.57 ± 4.63", "unit": "µg/mL"}, {"measurement": "Day 7 concentration in solution", "setting": "pH = 7", "result": "22.14 ± 6.83", "unit": "µg/mL"}, {"measurement": "Day 7 concentration in solution", "setting": "[5]", "result": "37.93 ± 2.89", "unit": "µg/mL"}, {"measurement": "Day 7 concentration in solution", "setting": "pH = 8", "result": "32.42 ± 8.76", "unit": "µg/mL"}]}]}
